Source: patent US7893078B2 (priority 2001, dated 2011)
Where “and” joins values, the source holds several entries; their conditions need not be identical. Equal values may be shown once. Entries after “also recorded” stand apart in the source; their conditions may differ.

Key:
[1] = tested on: basal cell carcinoma (BCC); conditions: human, in vivo
Protocol: (§1) The base cream used is made predominantly of heavy paraffin oil (10% w/w), vaseline (10% w/w), stearyl alcohol (8% w/w), polyoxysteareth-40 (3% w/w) and water (68% w/w), but another suitably formulated base cream is also possible. […] Night-time applications, avoided in this schedule because of possible loss of cream from the patient skin to linens during sleep, can be performed by suitable dermal patches.
Every third hour, about 20 μl cream was applied directly onto the lower half and the upper half was left untreated.
The tumor was then followed up without treatment for a study of the possible late effects. […] For example expression of the cell adhesion molecule CD44 is known to increase upon differentiation of the epidermal basal cells to the upper spinous layer cells (Kooy A J et al (1999) Human Pathology 30:1328-1335).

trichoepithelioma = conditions: human, in vivo
Source text: (§2) Trichoepithelioma is another tumor associated with genetic changes that cause increased hedgehog-smoothened signalling (Vorechovsky L. et al. (1997) Cancer Res. 57:4677-4681; Nilsson M. et al. (2000) Proc. Natl. Acad. Sci. USA 97:3438-3443).

melanocytic nevi = test: Cyclopamine cream on mole / melanocytic nevi; assay type: in vivo, human
Source text: as §2

[2] = tested on: normal epidermis and hair follicles; test: Normal skin exposed to the same schedule and doses of cyclopamine cream; histology, immunohistochemistry and follow-up
Source text: as §1

For `CC1=C2C[C@H]3[C@@H](CC=C4C[C@@H](O)CC[C@@]43C)[C@@H]2CC[C@]12O[C@@H]1C[C@H](C)CN[C@H]1[C@H]2C` [Cyclopamine], the “% of Cells Labelled with Ber-Ep4” value [1] was 0 ± 0%, the “% of Cells showing ≦ 2 Morphological Signs of Apoptosis on H & E Stained Tissue Sections” value [1] was 20 ± 8% and 18 ± 11% and the “CD44 labelling of residual tumor cells (differentiation marker)” value [1] was “markedly increased, strong labelling of essentially all residual tumor cells”. The “Clinical regression of BCC” value [1] was “rapid clinical regressions; also recorded: rapid regression; also recorded: largely regressed”, the “Ki-67 antigen expression (proliferation marker)” value [1] was “no longer expressed” and the “Labelling of residual BCC cells with Ulex Europaeus lectin type 1 (differentiation marker)” value [1] was “heterogenous labelling”. The “Clinical regression of trichoepithelioma” value (trichoepithelioma) was “rapid regression”, the “Effect on melanocytic nevi” value (melanocytic nevi; 18 mM cyclopamine cream, another volunteer, data not shown) was “rapid depigmentation and disappearance” and the “Size and pigmentation of mole near treated tumor” value (melanocytic nevi; cyclopamine by diffusion from adjacent application area, 24th hour) was “decreased size and pigmentation”. For the same molecule, the “Appearance of former skin sites of cyclopamine application at long-term follow-up” value ([2]; followed up more than 31 months) was “healthy-looking normal skin and hair” and the “Adverse effect on tissues and putative stem cells (histology, cytokeratin 15 and 19, Ber-Ep4)” value ([2]; normal skin exposed to same schedule and doses as the BCCs) was “no adverse effect”.
